Tests used:
[1] = biological target: T1, human GMPR type 2 (hGMPR2) (Homo sapiens, UniProt Q9P2T1); assay: X-ray crystal structure of E•IMP•NADPH, […] Å; assay type: binding
T1 sequence (Q9P2T1 1-348): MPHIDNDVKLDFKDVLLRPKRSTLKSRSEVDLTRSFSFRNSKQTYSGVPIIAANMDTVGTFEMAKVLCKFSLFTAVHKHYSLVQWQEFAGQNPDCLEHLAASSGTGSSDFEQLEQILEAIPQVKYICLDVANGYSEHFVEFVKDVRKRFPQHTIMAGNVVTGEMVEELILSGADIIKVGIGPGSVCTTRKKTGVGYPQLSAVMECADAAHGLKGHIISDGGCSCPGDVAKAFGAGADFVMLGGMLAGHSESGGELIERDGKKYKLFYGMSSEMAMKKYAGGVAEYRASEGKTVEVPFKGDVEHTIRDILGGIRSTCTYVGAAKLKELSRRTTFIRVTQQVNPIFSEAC

[2] = test system: CC(=O)C1=CN([C@@H]2O[C@H](COP(=O)(O)OP(=O)(O)OC[C@H]3O[C@@H](n4cnc5c(N)ncnc54)[C@H](OP(=O)(O)O)[C@@H]3O)[C@@H](O)[C@H]2O)C=CC1; assay: purified protein; conditions: 2-Cl-IMP (co-substrate); varied: cofactor
[3] = test system: O=c1[nH]c(Cl)nc2c1ncn2[C@@H]1O[C@H](COP(=O)(O)O)[C@@H](O)[C@H]1O; assay: purified protein; conditions: NADPH or NADP+ catalytic Cys186 (E-XMP* intermediate; none with C186A)
[4] = biological target: E. coli GMPR (EcGMPR), GMP reductase (Escherichia coli, UniProt P60560); assay: spectrophotometric enzyme inhibition assay; assay type: biochemical
crystal structure = biological target: the molecule itself; assay: crystal structure

Chain of E. coli GMPR (EcGMPR), GMP reductase (P60560 whole entry): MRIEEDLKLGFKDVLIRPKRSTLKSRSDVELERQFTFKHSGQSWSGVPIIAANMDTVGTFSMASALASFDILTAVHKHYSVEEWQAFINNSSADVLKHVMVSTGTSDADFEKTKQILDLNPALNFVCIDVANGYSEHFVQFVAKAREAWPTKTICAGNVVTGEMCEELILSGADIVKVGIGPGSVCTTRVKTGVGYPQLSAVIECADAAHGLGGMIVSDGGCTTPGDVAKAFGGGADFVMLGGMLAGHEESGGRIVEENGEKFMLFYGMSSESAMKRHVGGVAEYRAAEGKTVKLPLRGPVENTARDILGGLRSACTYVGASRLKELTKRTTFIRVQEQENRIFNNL

NC(=O)C1=CN([C@@H]2O[C@H](COP(=O)(O)OP(=O)(O)OC[C@H]3O[C@@H](n4cnc5c(N)ncnc54)[C@H](OP(=O)(O)O)[C@@H]3O)[C@@H](O)[C@H]2O)C=CC1 [NADPH]
X-ray crystal structure of E•IMP•NADPH, 1.7 Å [1]: NADPH was found in two conformations in the seven monomers, an "in" conformation and an "out" conformation

E. coli GMPR (EcGMPR), GMP reductase (Escherichia coli K-12)
Km [2]: 11.0 ± 2.0 µM
Km [3]: 7.8 ± 1.1 µM

NC(=O)c1ncn([C@@H]2O[C@H](COP(=O)(O)O)[C@@H](O)[C@H]2O)n1 [Ribavirin monophosphate]
Ki [4]: 98 ± 25 µM

NC(=O)c1ncn([C@@H]2O[C@H](COP(=O)(O)O)[C@@H](O)[C@H]2O)c1O [mizoribine monophosphate]
Ki [4]: 0.015 ± 0.003 µM

B1: human GMP reductase type 2 (enzyme)
chain: LDFKDVLLRPKRSTLKSRSEVDLTRSFSFRNSKQTYSGVPIIAANMDTVGTFEMAKVLCKFSLFTAVHKHYSLVQWQEFAGQNPDCLEHLAASSGTGSSDFEQLEQILEAIPQVKYICLDVANGYSEHFVEFVKDVRKRFPQHTIMAGNVVTGEMVEELILSGADIIKVGIGPGSVCTTRKKTGVGYPQLSAVMECADAAHGLKGHIISDGGCSCPGDVAKAFGAGADFVMLGGMLAGHSESGGELIERDGKKYKLFYGMSSEMAMKKYAGGVAEYRASEGKTVEVPFKGDVEHTIRDILGGIRSTCTYVGAAKLKELSRRTTFIRVTQQVN
stoichiometry N (crystal structure): 4

Source: publication PMC4552316 (Nature chemical biology, 2011)
